From patent US10336792B2, “Antimicrobial peptide dendrimers” (priority 2014, dated 2019)
≈ marks a conversion by molar mass, not a printed value. Positions of bridges follow the written chain, without caps; N, C: chain ends. Residues, ends and D or L forms follow the SMILES beside them. Groups on a side chain read outwards from the residue. Chains are numbered I, II in the order given. *: point of attachment. Palmitoyl = CCCCCCCCCCCCCCCC(=O)*

What was measured:
[1] = system: Escherichia coli (strain DH5α); assay type: cell-based; details: DH5α
Protocol: (§1) Antimicrobial activity was assayed against Bacillus subtilis (strain BR151), Escherichia coli (strain DH5α) and Pseudomonas aeruginosa (strain PA01). Microdilution broth method was used to determine the minimal inhibitory concentration (MIC). A colony of bacteria was grown in LB-medium overnight at 37° C. The concentration was quantified by measuring absorbance at 600 nm and diluted to OD600=0.1 (1×10^8 CFU/mL). The samples were prepared as stock solutions of 1 mg mL^−1 in H2O and diluted serially by ⅔ in nutrient LB in a 96-well microtiterplate (Cornstar, polypropylene, untreated). The sample solutions (50 μL) were mixed with the diluted bacterial suspension with an OD600 nm of 0.001 (50 μL). […] The plates were incubated at 37° C. until satisfactory growth (18-24 h). For each test, two columns of the plate were kept for sterility control (SC, broth only) and growth control (GC, broth with bacterial inoculums, no antibiotics). 10 μL of a solution of MTT (0.1% in H2O) was added to each well. The minimal inhibitory concentration (MIC) was defined as the lowest concentration of the antimicrobial substance (peptide dendrimer) that inhibited visible growth of the tested bacteria (yellow) with the unaided eye. For microbiological study the linear peptide LysTyrLysLysAlaLeuLysLysLeuAlaLysLeuLeu (SEQ ID No. 1) was used as reference.
The AMPD library was tested for their antimicrobial activity against B. subtilis BR151, a Gram-positive bacterium and E. coli DH5α, another Gram-negative bacterium, to cover a broader spectrum of different bacteria. […] Therefore no explicit SAR can be established, but clearly the hydrophobic amino acids Ala and Tyr seem to have a significant influence in reducing activity.

[2] = system: Pseudomonas aeruginosa (strain PA01); assay: microbe, parasite or virus in culture; assay type: cell-based; details: strain
Protocol: as §1
All peptides were tested for their activity against P. aeruginosa PAO1 in a broth dilution assay (Wiegand, I. et al., 2008, Nat. Protoc., 3, 163-75; Clinical and Laboratory Standards Institute document M7-A7 7th Edition) to determine the MIC (minimal inhibitory concentration) values. The stock solutions of the peptide dendrimers were diluted serially by ⅔ in nutrient LB in 96-well microtiter plates. Bacteria were grown in nutrient LB overnight at 37° C. After dilution the bacteria were added to the peptides and incubated overnight (18-24 h) at 37° C. […] The position of the amino acids between the branching units seems to be optimal if the hydrophobic amino acid is the first counting from C-terminus and the charged one is on the second position. Introducing Ala as additional hydrophobic amino acid reduces activity (MSt-120). […] Also assembling charged or hydrophobic sections between the branching units leads to loss of activity whereas altering L-amino acids to D-amino acids maintains activity leading to the hypothesis that the mechanism of action should not be receptor mediated.

SMILES	MIC E. coli DH5α [1]	MIC P. aeruginosa PAO1 [2]
CC(C)C[C@H](NC(=O)[C@H](CC(C)C)NC(=O)[C@H](CCCCNC(=O)[C@H](CCCCN)NC(=O)[C@H](CCCCN)NC(=O)[C@H](CCCCNC(=O)[C@H](CC(C)C)NC(=O)[C@H](CC(C)C)NC(=O)[C@H](CCCCNC(=O)[C@H](CCCCN)NC(=O)[C@@H](N)CCCCN)NC(=O)[C@H](CCCCN)NC(=O)[C@@H](N)CCCCN)NC(=O)[C@H](CC(C)C)NC(=O)[C@H](CC(C)C)NC(=O)[C@H](CCCCNC(=O)[C@H](CCCCN)NC(=O)[C@@H](N)CCCCN)NC(=O)[C@H](CCCCN)NC(=O)[C@@H](N)CCCCN)NC(=O)[C@H](CCCCN)NC(=O)[C@H](CCCCN)NC(=O)[C@H](CCCCNC(=O)[C@H](CC(C)C)NC(=O)[C@H](CC(C)C)NC(=O)[C@H](CCCCNC(=O)[C@H](CCCCN)NC(=O)[C@@H](N)CCCCN)NC(=O)[C@H](CCCCN)NC(=O)[C@@H](N)CCCCN)NC(=O)[C@H](CC(C)C)NC(=O)[C@H](CC(C)C)NC(=O)[C@H](CCCCNC(=O)[C@H](CCCCN)NC(=O)[C@@H](N)CCCCN)NC(=O)[C@H](CCCCN)NC(=O)[C@@H](N)CCCCN)C(N)=O [MSt-179, (KK)8(KLL)4(KKK)2(KLL)] (I: H-KKK([Lys-Lys])LLKKKKLL-NH2 / II: H-KKK([Lys-Lys])LLKKK / III: H-KKK([Lys-Lys])LL / IV: H-KKK([Lys-Lys])LL; amide I:6-IV:C, I:9-II:C, II:6-III:C; N-terminus assumed)	>66 µg/mL	
CCCCCCCCCCCCCCCC(=O)NCCCC[C@H](NC(=O)[C@H](CC(C)C)NC(=O)[C@H](CCCCN)NC(=O)[C@H](CCCCNC(=O)[C@H](CC(C)C)NC(=O)[C@H](CCCCN)NC(=O)[C@H](CCCCNC(=O)[C@H](CC(C)C)NC(=O)[C@H](CCCCN)NC(=O)[C@H](CCCCNC(=O)[C@H](CC(C)C)NC(=O)[C@@H](N)CCCCN)NC(=O)[C@H](CC(C)C)NC(=O)[C@@H](N)CCCCN)NC(=O)[C@H](CC(C)C)NC(=O)[C@H](CCCCN)NC(=O)[C@H](CCCCNC(=O)[C@H](CC(C)C)NC(=O)[C@@H](N)CCCCN)NC(=O)[C@H](CC(C)C)NC(=O)[C@@H](N)CCCCN)NC(=O)[C@H](CC(C)C)NC(=O)[C@H](CCCCN)NC(=O)[C@H](CCCCNC(=O)[C@H](CC(C)C)NC(=O)[C@H](CCCCN)NC(=O)[C@H](CCCCNC(=O)[C@H](CC(C)C)NC(=O)[C@@H](N)CCCCN)NC(=O)[C@H](CC(C)C)NC(=O)[C@@H](N)CCCCN)NC(=O)[C@H](CC(C)C)NC(=O)[C@H](CCCCN)NC(=O)[C@H](CCCCNC(=O)[C@H](CC(C)C)NC(=O)[C@@H](N)CCCCN)NC(=O)[C@H](CC(C)C)NC(=O)[C@@H](N)CCCCN)C(N)=O [MSt-301, (KL)8(KKL)4(KKL)2(KKLKC16)] (I: H-KLK([Leu-Lys])KLKKLKKLK(Palmitoyl)-NH2 / II: H-KLK([Leu-Lys])KLKKL / III: H-KLK([Leu-Lys])KL / IV: H-KLK([Leu-Lys])KL; amide I:6-IV:C, I:9-II:C, II:6-III:C)	8 µg/mL (≈ 1.63 µM)	11 µg/mL (≈ 2.24 µM)
CCCCCCCCCCCCCCCC(=O)NCCCC[C@H](NC(=O)[C@H](CC(C)C)NC(=O)[C@H](CCCCN)NC(=O)[C@H](CCCCNC(=O)[C@H](CC(C)C)NC(=O)[C@H](CCCCN)NC(=O)[C@H](CCCCNC(=O)[C@H](CC(C)C)NC(=O)[C@@H](N)CCCCN)NC(=O)[C@H](CC(C)C)NC(=O)[C@@H](N)CCCCN)NC(=O)[C@H](CC(C)C)NC(=O)[C@H](CCCCN)NC(=O)[C@H](CCCCNC(=O)[C@H](CC(C)C)NC(=O)[C@@H](N)CCCCN)NC(=O)[C@H](CC(C)C)NC(=O)[C@@H](N)CCCCN)C(N)=O [MSt-302, (KL)4(KKL)2(KKLKC16)] (I: H-KLK([Leu-Lys])KLKKLK(Palmitoyl)-NH2 / II: H-KLK([Leu-Lys])KL; amide I:6-II:C)	12 µg/mL (≈ 4.88 µM)	

Other lines, results leading:

MIC E. coli DH5α [1]	MIC P. aeruginosa PAO1 [2]	SMILES
	2 µg/mL (≈ 0.41 µM)	CC(C)C[C@H](NC(=O)[C@H](CC(C)C)NC(=O)[C@H](CCCCN)NC(=O)[C@H](CCCCNC(=O)[C@H](CC(C)C)NC(=O)[C@H](CCCCN)NC(=O)[C@H](CC(C)C)NC(=O)[C@H](CCCCNC(=O)[C@H](CC(C)C)NC(=O)[C@H](CCCCN)NC(=O)[C@H](CCCCNC(=O)[C@H](CC(C)C)NC(=O)[C@@H](N)CCCCN)NC(=O)[C@H](CC(C)C)NC(=O)[C@@H](N)CCCCN)NC(=O)[C@H](CC(C)C)NC(=O)[C@H](CCCCN)NC(=O)[C@H](CCCCNC(=O)[C@H](CC(C)C)NC(=O)[C@@H](N)CCCCN)NC(=O)[C@H](CC(C)C)NC(=O)[C@@H](N)CCCCN)NC(=O)[C@H](CC(C)C)NC(=O)[C@H](CCCCN)NC(=O)[C@H](CC(C)C)NC(=O)[C@H](CCCCNC(=O)[C@H](CC(C)C)NC(=O)[C@H](CCCCN)NC(=O)[C@H](CCCCNC(=O)[C@H](CC(C)C)NC(=O)[C@@H](N)CCCCN)NC(=O)[C@H](CC(C)C)NC(=O)[C@@H](N)CCCCN)NC(=O)[C@H](CC(C)C)NC(=O)[C@H](CCCCN)NC(=O)[C@H](CCCCNC(=O)[C@H](CC(C)C)NC(=O)[C@@H](N)CCCCN)NC(=O)[C@H](CC(C)C)NC(=O)[C@@H](N)CCCCN)C(N)=O [YGO-009, (KL)8(KKL)4(KLKL)2(KKLL)] (I: H-KLK([Leu-Lys])KLKLKLKKLL-NH2 / II: H-KLK([Leu-Lys])KLKLKL / III: H-KLK([Leu-Lys])KL / IV: H-KLK([Leu-Lys])KL; amide I:6-IV:C, I:10-II:C, II:6-III:C)
	3 µg/mL (≈ 0.614 µM)	CC(C)C[C@H](NC(=O)[C@H](CCCCN)NC(=O)[C@H](CC(C)C)NC(=O)[C@H](CCCCNC(=O)[C@H](CC(C)C)NC(=O)[C@H](CCCCN)NC(=O)[C@H](CCCCNC(=O)[C@H](CC(C)C)NC(=O)[C@@H](N)CCCCN)NC(=O)[C@H](CC(C)C)NC(=O)[C@@H](N)CCCCN)NC(=O)[C@H](CC(C)C)NC(=O)[C@H](CCCCN)NC(=O)[C@H](CCCCNC(=O)[C@H](CC(C)C)NC(=O)[C@@H](N)CCCCN)NC(=O)[C@H](CC(C)C)NC(=O)[C@@H](N)CCCCN)C(=O)NCCCC[C@H](NC(=O)[C@H](CC(C)C)NC(=O)[C@H](CCCCN)NC(=O)[C@H](CC(C)C)NC(=O)[C@H](CCCCNC(=O)[C@H](CC(C)C)NC(=O)[C@H](CCCCN)NC(=O)[C@H](CCCCNC(=O)[C@H](CC(C)C)NC(=O)[C@@H](N)CCCCN)NC(=O)[C@H](CC(C)C)NC(=O)[C@@H](N)CCCCN)NC(=O)[C@H](CC(C)C)NC(=O)[C@H](CCCCN)NC(=O)[C@H](CCCCNC(=O)[C@H](CC(C)C)NC(=O)[C@@H](N)CCCCN)NC(=O)[C@H](CC(C)C)NC(=O)[C@@H](N)CCCCN)C(=O)N[C@@H](CCCCN)C(=O)N[C@@H](CC(C)C)C(=O)N[C@@H](CCCCN)C(N)=O [YGO-010, (KL)8(KKL)4(KLKL)2(KKLK)] (I: H-KLK([Leu-Lys])KLKLKLKKLK-NH2 / II: H-KLK([Leu-Lys])KLKLKL / III: H-KLK([Leu-Lys])KL / IV: H-KLK([Leu-Lys])KL; amide I:6-IV:C, I:10-II:C, II:6-III:C)
	3 µg/mL (≈ 0.616 µM)	CC(C)C[C@H](NC(=O)[C@H](CCCCN)NC(=O)[C@H](CC(C)C)NC(=O)[C@H](CCCCNC(=O)[C@H](CC(C)C)NC(=O)[C@H](CCCCN)NC(=O)[C@H](CC(C)C)NC(=O)[C@H](CCCCNC(=O)[C@H](CC(C)C)NC(=O)[C@H](CCCCN)NC(=O)[C@H](CCCCNC(=O)[C@H](CC(C)C)NC(=O)[C@@H](N)CCCCN)NC(=O)[C@H](CC(C)C)NC(=O)[C@@H](N)CCCCN)NC(=O)[C@H](CC(C)C)NC(=O)[C@H](CCCCN)NC(=O)[C@H](CCCCNC(=O)[C@H](CC(C)C)NC(=O)[C@@H](N)CCCCN)NC(=O)[C@H](CC(C)C)NC(=O)[C@@H](N)CCCCN)NC(=O)[C@H](CC(C)C)NC(=O)[C@H](CCCCN)NC(=O)[C@H](CC(C)C)NC(=O)[C@H](CCCCNC(=O)[C@H](CC(C)C)NC(=O)[C@H](CCCCN)NC(=O)[C@H](CCCCNC(=O)[C@H](CC(C)C)NC(=O)[C@@H](N)CCCCN)NC(=O)[C@H](CC(C)C)NC(=O)[C@@H](N)CCCCN)NC(=O)[C@H](CC(C)C)NC(=O)[C@H](CCCCN)NC(=O)[C@H](CCCCNC(=O)[C@H](CC(C)C)NC(=O)[C@@H](N)CCCCN)NC(=O)[C@H](CC(C)C)NC(=O)[C@@H](N)CCCCN)C(N)=O [YGO-011, (KL)8(KKL)4(KLKL)2(KLKL)] (I: H-KLK([Leu-Lys])KLKLKLKLKL-NH2 / II: H-KLK([Leu-Lys])KLKLKL / III: H-KLK([Leu-Lys])KL / IV: H-KLK([Leu-Lys])KL; amide I:6-IV:C, I:10-II:C, II:6-III:C)
